Reference: patent US20080026049A1, “LIPOSOMAL COMPOSITIONS FOR PARENTERAL DELIVERY OF AGENTS” (priority 2005, published 2008)

Assay: physchem
Details: HBS, aqueous buffer

solubility: < 100 µg/mL
SMILES: Clc1ccc(COC(Cn2ccnc2)c2ccc(Cl)cc2Cl)cc1 (stereo not shown) [econazole, [(dichloro-2,4 phenyl)-2(chloro-4 benzoyloxy)-2 ethyl]-1 imidazole nitrate]
